Assay results reported in patent US10849916B2 (priority 2014, dated 2020).

Test: Water (moisture) content by Karl Fischer method
Format: physicochemical
Conditions: for Water content tested by KF method: isolated impurity fraction from preparative HPLC
Description: 1. Water content: Water content was estimated by karl fischer (KF) method wherein suitable quantity of methanol was taken in the flask and titrated with karl fischer reagent to neutralize the methanol. Then weighed quantity of the sample is added to the flask and titrated to the end point.

SMILES	Water content tested by KF method [% by weight]	Water content in the vials (after drying under vacuum in lyophilizer)	Water content of the input cyclophosphamide monohydrate (input drug substance, before drying)
CCOP(=O)(O)OCCCN1CCNCC1 [0.21 RRT, ethyl (3-(piperazin-1-yl)propyl) hydrogen phosphate]	2.69		
CCOCCN(CCCl)P1(=O)NCCCO1 (stereo not shown) [0.75 RRT, 2-((2-chloroethyl)(2-ethoxyethyl)amino)-1,3,2-oxazaphosphinane 2-oxide]	2.71		
O=P1(N(CCCl)CCCl)NCCCO1 (stereo not shown) [Cyclophosphamide, 2-[bis(2-chloroethyl)amino]tetrahydro-2H-1,3,2-oxazaphosphorine 2-oxide monohydrate]		approximately 1%	*Water content of the input cyclophosphamide monohydrate is 6.25% w/w.
